Like-named read-outs stand apart in the source and are kept apart here.

The target in one assay is β2 adrenergic receptor (Homo sapiens (Human), UniProt P07550). The assay is described as follows: cAMP Gs dynamic HTRF assay, β2 expressing CHO cells. It is filed as cell-based. As to conditions: B2-AR. The protocol: (§1) cAMP homogeneous time-resolved fluorescence (HTRF). Compound efficacy was determined using the cAMP Gs dynamic HTRF assay (Cisbio, catalog #62AM4PEC) largely following the manufacturer's instructions, also detailed below.
Sequence of β2 adrenergic receptor (P07550 whole entry, species assumed): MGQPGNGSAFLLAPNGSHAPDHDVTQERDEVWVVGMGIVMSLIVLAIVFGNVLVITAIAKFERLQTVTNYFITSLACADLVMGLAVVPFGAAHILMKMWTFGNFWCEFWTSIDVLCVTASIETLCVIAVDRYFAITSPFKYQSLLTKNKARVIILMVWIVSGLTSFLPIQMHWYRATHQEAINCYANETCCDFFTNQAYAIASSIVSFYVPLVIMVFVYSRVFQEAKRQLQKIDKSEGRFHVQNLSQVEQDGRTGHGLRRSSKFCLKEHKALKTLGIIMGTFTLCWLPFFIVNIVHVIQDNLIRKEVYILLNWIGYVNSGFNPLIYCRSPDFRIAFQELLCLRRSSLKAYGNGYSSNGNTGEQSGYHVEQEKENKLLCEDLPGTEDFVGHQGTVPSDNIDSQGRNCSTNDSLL
(§2) Compound preparation. […] Standard serial dilution curves were 10-point, 5-fold dilutions starting from a highest concentration of 10 μM. […] Assay plates were centrifuged at 500×g for 10 seconds. Compounds and IBMX were prepared at 2× final dose to compensate for addition of cells.
(§3) Cell preparation. 1× stimulation buffer, washing PBS (Dulbecco's phosphate-buffered saline, −Mg −Ca; Caisson Labs, catalog #PBL01), assay PBS (Dulbecco's phosphate-buffered saline, +Mg, +Ca; Caisson Labs, catalog #PBL02) and Versene (0.02% EDTA disodium salt solution in PBS without calcium or magnesium; Caisson Labs, catalog #EDL01) were pre-warmed to 37° C. Cells expressing beta-adrenergic receptor were washed in washing PBS to remove growth medium and then released from the surface by incubating with Versene for 5-10 minutes at 37° C. Cells were harvested using assay PBS, counted manually by hemocytometer or by an automated cell counter, pelleted by centrifugation (200×g, 5 minutes) and resuspended in 37° C. 1× stimulation buffer to a final density of 1.5×10^6 cells/mL. 5 μL of the suspended cell solution (7500 cell total) were added to all wells of the 384 well assay plate, the assay plate was covered with an Axygen® plate seal (Corning PCR-SP) and incubated in a humidified 37° C. environment supplemented with 5% CO2 for 30 minutes.
(§4) HTRF reagent addition, reading and data analysis. After 30 minutes of cell stimulation with test compound, the assay plates were centrifuged at 500×g for 10 seconds, and incubation was stopped with the addition of 5 μL cAMP-D2 acceptor, diluted 1:21 in detection and lysis buffer 2 (Cisbio 62CL2FDF) was added to all cells. Subsequently, 5 μL Anti-cAMP-Eu Donor, diluted 1:21 in detection and lysis buffer 2, was added to cells. Plates were sealed and reactions gently ‘vortexed’ at 900 rpm on a Heidolph Titramax 1000 for at least 30 minutes at room temperature. Plates were centrifuged again at 500×g for 10 seconds, and HTRF was measured using a Tecan Spark plate reader at 50 flashes per well. […] Potency estimates (EC50) were derived from the four-parameter nonlinear regression of the concentration-effect curve and an estimate of relative efficacy was determined by comparing the magnitude of the test compound HTRF signal window (min−max dose) with the signal window of the full agonist control, isoproterenol.

The next assay has as its target β1-adrenergic receptor (Homo sapiens (Human), UniProt P08588). The assay is described as follows: cAMP Gs dynamic HTRF assay, β1 expressing CHO cells. It is filed as cell-based. As to conditions: B1-AR. The protocol: as §1, §2, §3, §4
[1] abbreviates: CHO-K1 (HitHunter), read-out: Average pEC50 [Receptor subtype: B2-AR, Cell type: CHO-K1 (HitHunter)] (converted).
Setting [2] is: CHO-K cells, read-out: Average EC50 [Receptor subtype: B2-AR, Cell type: CHO-K].
The mark [3] stands for this setting: CHO-K1 (HitHunter), read-out: Average pEC50 [Receptor subtype: B1-AR, Cell type: CHO-K1 (HitHunter)] (converted).
[4] abbreviates: CHO-K cells, read-out: Average EC50 [Receptor subtype: B1-AR, Cell type: CHO-K].

Sequence of β1-adrenergic receptor (P08588 whole entry, species assumed): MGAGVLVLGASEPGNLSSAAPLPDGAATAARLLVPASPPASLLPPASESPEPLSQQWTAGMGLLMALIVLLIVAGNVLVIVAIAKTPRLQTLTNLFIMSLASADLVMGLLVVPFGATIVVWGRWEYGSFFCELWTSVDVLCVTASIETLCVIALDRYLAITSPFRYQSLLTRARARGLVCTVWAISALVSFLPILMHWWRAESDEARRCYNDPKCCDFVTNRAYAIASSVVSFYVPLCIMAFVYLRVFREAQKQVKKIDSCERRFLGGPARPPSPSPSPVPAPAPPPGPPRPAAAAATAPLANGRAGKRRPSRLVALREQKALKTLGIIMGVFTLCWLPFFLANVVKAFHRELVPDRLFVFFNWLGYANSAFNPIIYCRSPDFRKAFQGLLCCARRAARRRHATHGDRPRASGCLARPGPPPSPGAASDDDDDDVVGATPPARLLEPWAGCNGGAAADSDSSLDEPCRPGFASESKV

Turning to `Cc1cccc(-c2cccc([C@H](O)CNC(C)(C)C)n2)c1` [Compound 03-148], the EC50 at β2 adrenergic receptor (setting [1]), on β2 adrenergic receptor (setting [2]), at β1-adrenergic receptor (setting [3]) and at β1-adrenergic receptor (setting [4]) was 100 to 1000 nM throughout.

On to `Cc1ccccc1-c1cccc([C@@H](O)CNC(C)(C)C)n1` [Compound 03-149], for which the EC50 at β2 adrenergic receptor (setting [1]) was less than 10 nM; on β2 adrenergic receptor (setting [2]), less than 10 nM; at β1-adrenergic receptor (setting [3]), 100 to 1000 nM; at β1-adrenergic receptor (setting [4]), 100 to 1000 nM.

With `CC(C)(C)NC[C@H](O)c1cccc(-c2cccnc2)n1` [Compound 03-151], the EC50 at β2 adrenergic receptor (setting [1]) was less than 10 nM; at β2 adrenergic receptor (setting [2]), less than 10 nM; at β1-adrenergic receptor (setting [4]), 10 to 100 nM. Further, at β1-adrenergic receptor (CHO-K1 (HitHunter)), the “Average pEC50 [Receptor subtype: B1-AR; Cell type: CHO-K1 (HitHunter)]” value (“Average pEC50” below) is listed as “B (B = 8-7)”.

On to `CC(C)(C)NC[C@@H](O)c1cccc(-c2cccnc2)n1` [Compound 03-152], for which the results for the EC50 on β2 adrenergic receptor (setting [1]), at β2 adrenergic receptor (setting [2]) and on β1-adrenergic receptor (setting [4]) were 10 to 100 nM, 100 to 1000 nM and more than 1000 nM, respectively. Moreover, the “Average pEC50” value on β1-adrenergic receptor (CHO-K1 (HitHunter)) is listed as “D (D < 6)”.

For `CN(C)c1cccc([C@H](O)CNC(C)(C)C)n1` [Compound 03-154], the EC50 on β2 adrenergic receptor (setting [1]), at β2 adrenergic receptor (setting [2]), at β1-adrenergic receptor (setting [3]) and at β1-adrenergic receptor (setting [4]) was more than 1000 nM throughout.

Consider `CC(C)(C)NC[C@H](O)c1cccc(-c2ccccc2F)n1` [Compound 03-155], for which the EC50 on β2 adrenergic receptor (setting [1]) was less than 10 nM; on β2 adrenergic receptor (setting [2]) it was less than 10 nM; on β1-adrenergic receptor (setting [3]) it was 10 to 100 nM; on β1-adrenergic receptor (setting [4]), 10 to 100 nM.

With `CC(C)(C)NC[C@@H](O)c1cccc(-c2ccccc2F)n1` [Compound 03-156], the EC50 on β2 adrenergic receptor (setting [1]) is 10 to 100 nM; at β2 adrenergic receptor (setting [2]), 10 to 100 nM; at β1-adrenergic receptor (setting [3]), more than 1000 nM; on β1-adrenergic receptor (setting [4]), more than 1000 nM.

With `CC(C)(C)NC[C@H](O)c1cccc(N2CCOCC2)n1` [Compound 03-157], the EC50 on β2 adrenergic receptor (setting [1]), at β2 adrenergic receptor (setting [2]) and at β1-adrenergic receptor (setting [4]) was less than 10 nM in each case. Also, at β1-adrenergic receptor (CHO-K1 (HitHunter)), the “Average pEC50” value was “A (A > 8)”.

Regarding `CC(C)(C)NC[C@@H](O)c1cccc(N2CCOCC2)n1` [Compound 03-158], the EC50 on β2 adrenergic receptor (setting [1]) is 10 to 100 nM; at β2 adrenergic receptor (setting [2]), 10 to 100 nM; at β1-adrenergic receptor (setting [4]) it was more than 1000 nM. Moreover, on β1-adrenergic receptor (CHO-K1 (HitHunter)), the “Average pEC50” value is listed as “D (D < 6)”.

Take `CCN(CC)c1cccc([C@H](O)CNC(C)(C)C)n1` [Compound 03-160]: the EC50 at β2 adrenergic receptor (setting [1]) and on β1-adrenergic receptor (setting [4]) was 100 to 1000 nM in each case.

On to `CC(C)(C)NC[C@H](O)c1ccc2cccc(C(F)(F)F)c2n1` [Compound 03-163], for which the EC50 at β2 adrenergic receptor (setting [2]) and at β1-adrenergic receptor (setting [4]) was less than 10 nM in each case.

For the molecule `CC(C)(C)NC[C@@H](O)c1ccc2cccc(C(F)(F)F)c2n1` [Compound 03-164], the EC50 is less than 10 nM at β2 adrenergic receptor (setting [2]) and 100 to 1000 nM on β1-adrenergic receptor (setting [4]).

For the molecule `CC(C)(C)NC[C@H](O)c1ccc2ccccc2n1` [Compound 03-165], the EC50 at β2 adrenergic receptor (setting [2]) and on β1-adrenergic receptor (setting [4]) was less than 10 nM throughout.

For `CC(C)(C)NC[C@@H](O)c1ccc2ccccc2n1` [Compound 03-166], the EC50 at β2 adrenergic receptor (setting [2]) and at β1-adrenergic receptor (setting [4]) was 100 to 1000 nM throughout.

With `CC(C)(C)NC[C@@H](O)c1cccc(C(C)(F)F)n1` [Compound 03-170], the EC50 at β2 adrenergic receptor (setting [1]) is 100 to 1000 nM; on β2 adrenergic receptor (setting [2]), 100 to 1000 nM; at β1-adrenergic receptor (setting [4]), more than 1000 nM. Besides, the “Average pEC50” value at β1-adrenergic receptor (CHO-K1 (HitHunter)) was “D (D < 6)”.

Turning to `CC(C)(C)NC[C@@H](O)c1nc(C(F)(F)F)cc2ccccc12` [Compound 03-172], the EC50 on β2 adrenergic receptor (setting [2]) and on β1-adrenergic receptor (setting [4]) was more than 1000 nM in each case.

As for `CC(C)c1cccc([C@H](O)CNC(C)(C)C)n1` [Compound 03-176], the EC50 on β2 adrenergic receptor (setting [1]) was 100 to 1000 nM; on β2 adrenergic receptor (setting [2]) it was 100 to 1000 nM; at β1-adrenergic receptor (setting [3]), more than 1000 nM; at β1-adrenergic receptor (setting [4]) it was more than 1000 nM.

Take `COc1ccc(CC(C)(C)NC[C@@H](O)c2cccc(C(F)(F)F)n2)cc1` [Compound 03-183]: the EC50 on β2 adrenergic receptor (setting [1]) was 100 to 1000 nM; at β2 adrenergic receptor (setting [2]), 100 to 1000 nM; at β1-adrenergic receptor (setting [3]), more than 1000 nM; at β1-adrenergic receptor (setting [4]), more than 1000 nM.

The values above are taken from patent US10947196B2, “Beta adrenergic agonist and methods of using the same” (CURASEN THERAPEUTICS, INC., priority 2019, dated 2021).
